Patent US7049292B2, “Therapeutically effective peptides related to preproinsulin” (King's College London, priority 2004, dated 2006)
Several values for one entry are separate records, joined by “and”; a condition that tells them apart may be missing. Equal values may be shown once. Read-outs that look alike come from different tables or passages of the source. Ends that are not written are not given here.

Legend:
[1] = system: pathogenic (IFN-γ) CD4+ T lymphocytes in PBMCs; test: IFN-γ ELISPOT analysis of PBMCs cultured with peptide; type: cell-based, human; settings: for Prevalence of IFN-γ responses, Totals (%) / Prevalence of IFN-γ responses, Totals (responders/tested): positive response SI≧3.0; for IFN-γ response, stimulation index (SI): PBMCs, peptide 10 μM
[2] = system: anti-inflammatory (IL-10 secreting) CD4+ T lymphocytes in PBMCs; type: cell-based, human; settings: for IL-10 response, stimulation index (SI): PBMCs, peptide 10 μM
[3] = T1DM patients with HLA-DR4 alleles
[4] = T1DM patients with non-DR4 alleles
[5] = non-diabetic control subject C9
[6] = patient #3, T1DM with HLA-DR4 alleles
[7] = patient #5, T1DM with HLA-DR4 alleles
[8] = patient #6, T1DM with HLA-DR4 alleles
[9] = patient #24, T1DM with HLA-DR4 alleles
[10] = patient #27, T1DM with non-DR4 alleles
[11] = non-diabetic control subject C4
[12] = non-diabetic control subject C8
[13] = patient #35, T1DM with non-DR4 alleles
[14] = patient #4, T1DM with HLA-DR4 alleles
[15] = patient #13, T1DM with HLA-DR4 alleles
[16] = patient #19, T1DM with HLA-DR4 alleles
[17] = non-diabetic control subject C13
[18] = patient #26, T1DM with non-DR4 alleles
[19] = patient #30, T1DM with non-DR4 alleles
[20] = non-diabetic control subjects, positive response SI≧3.0
[21] = patient #28, T1DM with non-DR4 alleles
[22] = patient #29, T1DM with non-DR4 alleles
[23] = patient #10, T1DM with HLA-DR4 alleles
[24] = patient #12, T1DM with HLA-DR4 alleles

Substance	Prevalence of IFN-γ responses, Totals (%) [1, 3]	Prevalence of IFN-γ responses, Totals (responders/tested) [1, 3]	Prevalence of IFN-γ responses, Totals (%) [1, 4]	Prevalence of IFN-γ responses, Totals (responders/tested) [1, 4]	Prevalence of IFN-γ responses, Totals (%) ([1]; non-diabetic control subjects)	Prevalence of IFN-γ responses, Totals (responders/tested) ([1]; non-diabetic control subjects)	IFN-γ response, stimulation index (SI) [1, 6]	IFN-γ response, stimulation index (SI) [1, 7]	IFN-γ response, stimulation index (SI) [1, 8]	IFN-γ response, stimulation index (SI) [1, 9]	Prevalence of IL-10 responses, Totals (responders/tested) [2]	IL-10 response, stimulation index (SI) [2, 11]	IL-10 response, stimulation index (SI) [2, 12]	IL-10 response, stimulation index (SI) [2, 6]	IL-10 response, stimulation index (SI) [2, 9]	IFN-γ response, stimulation index (SI) [1, 14]	IFN-γ response, stimulation index (SI) [1, 15]	IFN-γ response, stimulation index (SI) [1, 16]	IL-10 response, stimulation index (SI) [2, 17]	IL-10 response, stimulation index (SI) [2, 10]	further results
652–80: IA-2 peptide sequence, residues 652–80 (SRVSSVSSQFSDAAQASPSSHSSTPSWCE; UniProt Q16849 652-680, looked up, fragment)	(24) %	6/25	(9) %	1/11	(7) %	1/14	3.0	6.2	23.2	36.0	2/17 and 1/7 and 4/14	5.3	4.0	4.8	4.5	–	–	–	–	–	IFN-γ response, stimulation index (SI) [1, 5]: 3.8; IFN-γ response, stimulation index (SI) ([1]; patient #2, T1DM with HLA-DR4 alleles): 3.1; IFN-γ response, stimulation index (SI) ([1]; patient #7, T1DM with HLA-DR4 alleles): 6.4; IFN-γ response, stimulation index (SI) [1, 10]: 16.7; IL-10 response, stimulation index (SI) [2, 5]: 3.5; IL-10 response, stimulation index (SI) ([2]; non-diabetic control subject C10): 8.4; IL-10 response, stimulation index (SI) [2, 13]: 8.0
793–817: IA-2 peptide sequence, residues 793–817 (DFWQMVWESGCTVIVMLTPLVEDGV; UniProt Q16849 793-817, looked up, fragment)	(12) %	3/25	(0) %	0/11	(0) %	0/14	9.7	–	–	–	1/17 and 1/7 and 2/14	3.4	–	3.0	–	3.5	4.1	19.0	3.5	34.0	–
955–76: IA-2 peptide sequence, residues 955–76 (SKDQFEFALTAVAEEVNAILKA; UniProt Q16849 955-976, looked up, fragment)	(16) %	4/25	(18) %	2/11	(0) %	0/14	4.7	–	11.2	38.0	2/17 and 1/7	5.6	15.0	3.0	29.5	3.0	–	3.0	–	4.0	IFN-γ response, stimulation index (SI) [1, 18]: 5.0; IFN-γ response, stimulation index (SI) [1, 19]: 4.7; IL-10 response, stimulation index (SI) ([2]; non-diabetic control subject C11): 5.2; Prevalence of IL-10 responses, Totals (responders/tested) [2, 20]: 3/14
GGGPGAGSLQPLALEGSLQK [C13-C32, preproinsulin peptide, residues C13-C32]	(12) %	2/17	(25) %	2/8	(0) %	0/14	–	3.8	8.6	–	–	–	–	–	–	–	–	–	–	–	IFN-γ response, stimulation index (SI) [1, 21]: 11.5; IFN-γ response, stimulation index (SI) [1, 22]: 4.7; Prevalence of IL-10 responses, Totals (responders/tested) ([2]; listed as C13–32): 1/12 and 1/5 and 1/13
GSLQPLALEGSLQKRGIV [C19-A3]	(47) %	8/17	(38) %	3/8	(0) %	0/14	10.7	–	63.6	–	1/12 and 2/5	–	29.0	10.21	–	3.5	–	–	5.0	7.0	IFN-γ response, stimulation index (SI) ([1]; patient #8, T1DM with HLA-DR4 alleles): 3.0; IFN-γ response, stimulation index (SI) ([1]; patient #9, T1DM with HLA-DR4 alleles): 4.6; IFN-γ response, stimulation index (SI) [1, 23]: 5.0; IFN-γ response, stimulation index (SI) ([1]; patient #11, T1DM with HLA-DR4 alleles): 3.3; IFN-γ response, stimulation index (SI) [1, 24]: 10.7; IFN-γ response, stimulation index (SI) [1, 18]: 3.3; IFN-γ response, stimulation index (SI) [1, 21]: 5.0; IFN-γ response, stimulation index (SI) [1, 19]: 5.7; IL-10 response, stimulation index (SI) ([2]; non-diabetic control subject C5): 10.3; Prevalence of IL-10 responses, Totals (responders/tested) [2, 20]: 3/13; IL-10 response, stimulation index (SI) ([2]; patient #33, T1DM with non-DR4 alleles): 3.1
KLKVESSPSRSDYINASPIIEHDP [752–75, IA-2 peptide eluted from HLA-DR4]	(32) %	8/25	(9) %	1/11	(0) %	0/14	4.3	–	–	–	–	–	16.0	16.0	15.0	–	3.4	7.0	–	33.0	IFN-γ response, stimulation index (SI) [1, 23]: 12.3; IFN-γ response, stimulation index (SI) [1, 24]: 3.3; IFN-γ response, stimulation index (SI) ([1]; patient #20, T1DM with HLA-DR4 alleles): 3.9; IFN-γ response, stimulation index (SI) ([1]; patient #23, T1DM with HLA-DR4 alleles): 3.6; IFN-γ response, stimulation index (SI) [1, 18]: 3.0; Prevalence of IL-10 responses, Totals (responders/tested) ([2]; T1DM patients with HLA-DR4 alleles, positive response SI≧3.0): 3/17; Prevalence of IL-10 responses, Totals (responders/tested) ([2]; listed as 725–75): 2/7 and 2/14; IL-10 response, stimulation index (SI) ([2]; non-diabetic control subject C3): 8.7; IL-10 response, stimulation index (SI) [2, 24]: 3.79; IL-10 response, stimulation index (SI) [2, 13]: 4.0
LAKEWQALCAYQAEPNTCATAQGEGNIK [709–36, IA-2 peptide eluted from HLA-DR4]	(12) %	3/25	(0) %	0/11	(0) %	0/14	–	–	9.2	10.5	2/17 and 1/7	3.6	–	–	9.0	–	–	5.0	3.8	7.0	IL-10 response, stimulation index (SI) ([2]; non-diabetic control subject C6): 3.2; Prevalence of IL-10 responses, Totals (responders/tested) [2, 20]: 3/14; IL-10 response, stimulation index (SI) [2, 7]: 3.5
QPLALEGSLQKRGIVEQ [C22-A5]	(18) %	3/17	(25) %	2/8	(0) %	0/14	–	3.7	22.0	–	1/12 and 1/5 and 1/13	–	–	7.36	–	–	3.3	–	4.3	3.0	IFN-γ response, stimulation index (SI) [1, 21]: 5.8; IFN-γ response, stimulation index (SI) [1, 22]: 4.0
